Test results published in ChEMBL document CHEMBL3991601, “The target landscape of clinical kinase drugs” (Science, 2017).
Active and inactive are the calls of the source. Cut-off read from the data, not from the text of the source, for most assays here: actives have a measured Kd and inactives only a lower limit.

Experiments:
[1] = target: Serine/threonine-protein kinase/endoribonuclease IRE1 (Homo sapiens, UniProt O75460)
[2] = target: T1, Serine/threonine-protein kinase TAO2 (Homo sapiens, UniProt Q9UL54)
T1 sequence (Q9UL54 whole entry): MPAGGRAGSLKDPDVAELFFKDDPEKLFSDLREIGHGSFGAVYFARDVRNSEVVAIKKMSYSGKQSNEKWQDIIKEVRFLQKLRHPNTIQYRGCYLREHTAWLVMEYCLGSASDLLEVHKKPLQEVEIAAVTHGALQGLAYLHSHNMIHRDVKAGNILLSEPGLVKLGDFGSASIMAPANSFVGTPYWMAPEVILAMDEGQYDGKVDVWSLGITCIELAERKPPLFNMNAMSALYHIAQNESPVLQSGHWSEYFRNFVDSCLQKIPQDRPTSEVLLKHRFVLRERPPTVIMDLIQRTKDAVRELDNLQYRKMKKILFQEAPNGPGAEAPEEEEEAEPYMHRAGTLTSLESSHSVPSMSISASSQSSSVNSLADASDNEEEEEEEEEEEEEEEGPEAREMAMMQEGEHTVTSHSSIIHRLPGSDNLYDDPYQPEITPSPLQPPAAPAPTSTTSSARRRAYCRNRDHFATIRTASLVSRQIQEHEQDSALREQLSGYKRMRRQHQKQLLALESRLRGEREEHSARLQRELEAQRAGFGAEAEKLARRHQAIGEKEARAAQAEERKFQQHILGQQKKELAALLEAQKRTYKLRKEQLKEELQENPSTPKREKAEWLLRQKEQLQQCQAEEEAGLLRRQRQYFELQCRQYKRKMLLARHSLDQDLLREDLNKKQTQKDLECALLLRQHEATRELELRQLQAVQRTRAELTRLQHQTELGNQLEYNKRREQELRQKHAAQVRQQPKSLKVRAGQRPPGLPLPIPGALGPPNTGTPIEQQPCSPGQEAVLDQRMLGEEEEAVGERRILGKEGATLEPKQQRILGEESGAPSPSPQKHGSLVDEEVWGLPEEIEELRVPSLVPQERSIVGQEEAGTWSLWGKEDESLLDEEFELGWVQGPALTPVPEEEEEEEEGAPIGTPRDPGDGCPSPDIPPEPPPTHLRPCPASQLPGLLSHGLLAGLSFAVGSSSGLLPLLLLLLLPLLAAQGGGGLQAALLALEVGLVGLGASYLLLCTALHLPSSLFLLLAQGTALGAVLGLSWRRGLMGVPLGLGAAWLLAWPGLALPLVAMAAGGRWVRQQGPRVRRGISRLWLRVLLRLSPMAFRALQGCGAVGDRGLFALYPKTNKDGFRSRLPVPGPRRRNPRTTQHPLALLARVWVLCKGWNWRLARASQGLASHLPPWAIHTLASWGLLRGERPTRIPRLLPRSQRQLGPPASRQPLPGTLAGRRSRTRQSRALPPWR

[3] = target: cAMP-dependent protein kinase catalytic subunit beta (Homo sapiens, UniProt P22694)
[4] = target: T2, Structural maintenance of chromosomes protein 1A (Homo sapiens, UniProt Q14683)
T2 sequence (Q14683 whole entry): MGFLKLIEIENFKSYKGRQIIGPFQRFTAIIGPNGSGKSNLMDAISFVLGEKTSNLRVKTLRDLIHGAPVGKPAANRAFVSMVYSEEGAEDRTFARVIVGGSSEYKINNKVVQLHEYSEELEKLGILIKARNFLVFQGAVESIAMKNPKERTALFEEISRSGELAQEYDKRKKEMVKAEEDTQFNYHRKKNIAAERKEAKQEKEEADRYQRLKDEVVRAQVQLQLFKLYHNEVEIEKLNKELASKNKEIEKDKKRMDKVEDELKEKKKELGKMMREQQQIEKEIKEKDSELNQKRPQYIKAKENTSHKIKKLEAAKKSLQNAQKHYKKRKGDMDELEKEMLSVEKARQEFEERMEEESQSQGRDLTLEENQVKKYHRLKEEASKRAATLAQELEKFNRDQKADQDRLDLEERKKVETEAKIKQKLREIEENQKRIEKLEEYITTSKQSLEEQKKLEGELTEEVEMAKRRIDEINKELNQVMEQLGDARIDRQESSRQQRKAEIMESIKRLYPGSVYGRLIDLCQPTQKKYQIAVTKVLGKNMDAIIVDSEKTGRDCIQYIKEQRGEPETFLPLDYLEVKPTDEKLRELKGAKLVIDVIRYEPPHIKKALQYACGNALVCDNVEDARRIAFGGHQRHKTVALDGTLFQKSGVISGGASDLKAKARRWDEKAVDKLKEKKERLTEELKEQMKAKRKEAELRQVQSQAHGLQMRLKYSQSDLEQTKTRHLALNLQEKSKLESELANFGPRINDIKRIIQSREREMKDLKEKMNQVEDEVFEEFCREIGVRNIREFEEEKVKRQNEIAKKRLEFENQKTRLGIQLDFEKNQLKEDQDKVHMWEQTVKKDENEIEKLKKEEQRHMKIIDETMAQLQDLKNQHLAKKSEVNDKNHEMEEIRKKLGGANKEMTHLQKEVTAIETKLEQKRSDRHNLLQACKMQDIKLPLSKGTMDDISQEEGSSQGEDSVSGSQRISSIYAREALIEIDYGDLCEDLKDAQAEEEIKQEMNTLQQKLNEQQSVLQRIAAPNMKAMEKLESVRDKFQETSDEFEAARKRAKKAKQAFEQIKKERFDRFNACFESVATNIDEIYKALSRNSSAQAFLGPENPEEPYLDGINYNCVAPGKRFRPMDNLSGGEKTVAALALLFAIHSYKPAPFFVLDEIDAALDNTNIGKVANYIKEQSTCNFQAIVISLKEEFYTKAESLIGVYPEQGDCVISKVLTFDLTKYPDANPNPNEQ

[5] = target: Cyclin-dependent kinase 2 (Homo sapiens, UniProt P24941)
[6] = target: T3, Ferrochelatase, mitochondrial (Homo sapiens, UniProt P22830)
T3 sequence (P22830 whole entry): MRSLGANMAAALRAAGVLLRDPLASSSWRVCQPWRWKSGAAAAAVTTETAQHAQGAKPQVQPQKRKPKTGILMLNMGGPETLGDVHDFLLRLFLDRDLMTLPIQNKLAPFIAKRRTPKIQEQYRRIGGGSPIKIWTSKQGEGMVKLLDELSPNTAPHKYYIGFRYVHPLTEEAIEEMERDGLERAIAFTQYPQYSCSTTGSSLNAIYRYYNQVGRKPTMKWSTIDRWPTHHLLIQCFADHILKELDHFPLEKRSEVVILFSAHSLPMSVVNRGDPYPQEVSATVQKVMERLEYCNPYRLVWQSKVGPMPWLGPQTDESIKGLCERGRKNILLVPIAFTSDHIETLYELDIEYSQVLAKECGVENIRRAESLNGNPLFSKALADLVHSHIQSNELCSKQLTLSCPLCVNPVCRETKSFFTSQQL
Note: in the data inactive means no Kd found up to 30 µM.

Chain of Serine/threonine-protein kinase/endoribonuclease IRE1 (O75460 whole entry): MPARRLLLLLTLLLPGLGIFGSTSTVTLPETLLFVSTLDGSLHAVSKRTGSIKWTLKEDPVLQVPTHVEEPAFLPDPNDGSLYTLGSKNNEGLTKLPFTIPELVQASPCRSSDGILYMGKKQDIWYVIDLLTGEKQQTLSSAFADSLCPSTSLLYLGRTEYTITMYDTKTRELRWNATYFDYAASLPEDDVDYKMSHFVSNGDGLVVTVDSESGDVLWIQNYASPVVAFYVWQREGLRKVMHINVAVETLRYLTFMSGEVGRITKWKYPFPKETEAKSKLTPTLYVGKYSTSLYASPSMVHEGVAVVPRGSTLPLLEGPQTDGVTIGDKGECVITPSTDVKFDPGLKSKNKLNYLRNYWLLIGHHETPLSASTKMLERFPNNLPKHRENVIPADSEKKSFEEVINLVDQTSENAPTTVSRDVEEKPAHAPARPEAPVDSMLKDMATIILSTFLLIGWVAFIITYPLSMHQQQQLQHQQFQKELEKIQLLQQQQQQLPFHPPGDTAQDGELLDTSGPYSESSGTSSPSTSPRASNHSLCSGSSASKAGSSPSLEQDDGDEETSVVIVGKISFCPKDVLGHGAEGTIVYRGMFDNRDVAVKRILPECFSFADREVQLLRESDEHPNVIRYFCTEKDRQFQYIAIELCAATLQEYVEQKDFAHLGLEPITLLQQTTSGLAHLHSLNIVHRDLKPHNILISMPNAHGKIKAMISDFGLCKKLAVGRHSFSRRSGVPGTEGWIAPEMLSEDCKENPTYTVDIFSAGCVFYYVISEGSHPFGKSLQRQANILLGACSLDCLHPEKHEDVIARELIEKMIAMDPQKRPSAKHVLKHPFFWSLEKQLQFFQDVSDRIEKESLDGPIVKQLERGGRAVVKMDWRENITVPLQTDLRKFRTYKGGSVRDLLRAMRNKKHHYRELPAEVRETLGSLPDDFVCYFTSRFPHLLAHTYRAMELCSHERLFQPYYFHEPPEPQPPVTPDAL

Row | Kd [1] | Kd [2] | Kd [3] | Kd [4] | Kd [5] | Kd [6] | SMILES
1 | > 30 µM (inactive) | > 30 µM (inactive) | > 30 µM (inactive) | > 30 µM (inactive) | 1.69 µM (active) | > 30 µM (inactive) | O=C(O)c1ccc2c(c1)nc(Nc1cccc(Cl)c1)c1ccncc12 [SILMITASERTIB]
2 | > 30 µM (inactive) | > 30 µM (inactive) | > 30 µM (inactive) | > 30 µM (inactive) | > 30 µM (inactive) | > 30 µM (inactive) | COc1ccc2c(OCc3nnc4ccc(-c5ccccc5)nn34)ccnc2c1 [AMG-208]
3 | > 30 µM (inactive) | > 30 µM (inactive) | > 30 µM (inactive) | > 30 µM (inactive) | > 30 µM (inactive) | > 30 µM (inactive) | O=C(NC[C@H](O)CO)c1ccncc1Nc1ccc(I)cc1F [PIMASERTIB]
4 | > 30 µM (inactive) | > 30 µM (inactive) | > 30 µM (inactive) | > 30 µM (inactive) | > 30 µM (inactive) | > 30 µM (inactive) | C#Cc1cccc(Nc2ncnc3cc4c(cc23)OCCOCCOCCO4)c1 [ICOTINIB]
